The text below walks through data of article PMC11434067, “Bioassay-Guided Isolation and Identification of Xanthine Oxidase Inhibitory Constituents from the Fruits of Chaenomeles speciosa (Sweet) Nakai” (Molecules, 2024).

Read-outs that look alike come from different tables or passages of the source.

What is called IC50 is the concentration that gives 50% inhibition.

In assay [1] the target is T1, XO (Bos taurus, UniProt P80457). Briefly: In vitro xanthine oxidase inhibition assay (uric acid formation, absorbance at 290 nm). The assay is classed as biochemical.
T1 sequence (P80457 whole entry): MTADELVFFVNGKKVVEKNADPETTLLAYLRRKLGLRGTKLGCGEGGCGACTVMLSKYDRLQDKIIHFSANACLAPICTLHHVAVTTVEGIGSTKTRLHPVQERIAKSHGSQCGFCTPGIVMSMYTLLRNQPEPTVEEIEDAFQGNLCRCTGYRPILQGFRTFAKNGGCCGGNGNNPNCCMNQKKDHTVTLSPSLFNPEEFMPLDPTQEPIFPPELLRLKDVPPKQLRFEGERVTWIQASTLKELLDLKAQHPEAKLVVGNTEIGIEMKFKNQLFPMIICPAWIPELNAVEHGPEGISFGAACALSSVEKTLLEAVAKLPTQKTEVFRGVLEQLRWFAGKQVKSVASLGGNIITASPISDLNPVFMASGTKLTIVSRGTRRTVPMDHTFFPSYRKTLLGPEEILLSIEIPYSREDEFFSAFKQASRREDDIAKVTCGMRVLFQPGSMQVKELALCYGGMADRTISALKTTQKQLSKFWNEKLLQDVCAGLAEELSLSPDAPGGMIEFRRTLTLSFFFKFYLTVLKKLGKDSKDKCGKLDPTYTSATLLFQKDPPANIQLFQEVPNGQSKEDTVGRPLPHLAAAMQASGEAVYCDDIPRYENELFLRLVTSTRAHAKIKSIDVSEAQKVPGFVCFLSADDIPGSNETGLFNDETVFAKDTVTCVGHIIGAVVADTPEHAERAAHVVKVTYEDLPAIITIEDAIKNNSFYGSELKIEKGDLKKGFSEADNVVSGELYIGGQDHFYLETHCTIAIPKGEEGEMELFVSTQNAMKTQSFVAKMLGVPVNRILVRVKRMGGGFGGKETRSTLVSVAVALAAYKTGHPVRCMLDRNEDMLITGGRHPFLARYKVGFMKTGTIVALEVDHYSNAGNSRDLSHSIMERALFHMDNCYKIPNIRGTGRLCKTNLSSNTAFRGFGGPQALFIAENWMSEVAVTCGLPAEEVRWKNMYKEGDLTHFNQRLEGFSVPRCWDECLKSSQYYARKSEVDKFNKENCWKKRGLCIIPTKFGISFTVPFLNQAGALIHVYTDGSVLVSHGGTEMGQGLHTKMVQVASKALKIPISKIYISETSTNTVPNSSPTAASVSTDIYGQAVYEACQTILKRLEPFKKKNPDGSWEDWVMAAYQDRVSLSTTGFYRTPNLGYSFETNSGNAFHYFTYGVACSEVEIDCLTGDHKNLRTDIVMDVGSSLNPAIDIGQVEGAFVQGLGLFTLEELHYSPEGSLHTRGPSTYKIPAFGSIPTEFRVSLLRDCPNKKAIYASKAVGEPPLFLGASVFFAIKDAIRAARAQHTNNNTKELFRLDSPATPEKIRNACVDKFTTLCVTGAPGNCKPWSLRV
Assay [2] has as its target T1, XO. The following applies: cited from earlier work.

`CCCCOC(=O)C1(O)CC(O)C(O)C(OC(=O)C=Cc2ccc(O)c(O)c2)C1` (stereo not drawn) [compound 2, butyl chlorogenate]: on XO [1], the IC50 was 399 µM.
For `COC(=O)[C@]1(O)C[C@@H](O)[C@@H](O)[C@H](OC(=O)/C=C/c2ccc(O)c(O)c2)C1` [compound 1, methyl chlorogenate], on XO [1], the IC50 is 425 µM.
For the compound `O=C(O)/C=C/c1ccc(O)c(O)c1` [compound 6, caffeic acid], at XO [1], half-maximal inhibition (IC50) was put at 242 µM.
With `O=C(O)c1ccc(O)c(O)c1` [compound 9, protocatechuic acid], the IC50 at XO [1] is 651 µM.
For `CCOC(=O)[C@]1(O)C[C@@H](O)[C@@H](O)[C@H](OC(=O)/C=C/c2ccc(O)c(O)c2)C1` [compound 3, ethyl chlorogenate], the IC50 against XO [1] was 450 µM.
`O=C(O)c1ccccc1` [compound 8, benzoic acid] showed a half-maximal inhibitory concentration (IC50) against XO [1] of 104 µM. For the same compound, the “inhibition of XO at low concentration (in words)” value against XO [1] (concentration lower than 200 µM) is listed as “high inhibition”.
As for `O=C(O)/C=C/c1ccc(O)cc1` [compound 7, p-coumaric acid], the 50% inhibitory concentration (IC50) against XO [1] is 351 µM.
In turn, `O=C(/C=C/c1ccc(O)c(O)c1)O[C@@H]1C[C@](O)(C(=O)O)C[C@@H](O)[C@H]1O` [compound 4, chlorogenic acid] showed a 50% inhibitory concentration (IC50) against XO [1] of 297 µM. Moreover, the “type of XO inhibition” value on XO [2] (ref 45) was “noncompetitive inhibition”; at XO [2] (ref 46), “non-competitive inhibitory effect”.
The compound `COC(=O)C1(O)C[C@@H](O)C(OC(=O)/C=C/c2ccc(O)c(O)c2)[C@H](O)C1` (stereo partly drawn) [compound 5, cryptochlorogenic acid methyl ester] showed an IC50 against XO [1] of 600 µM.
